Source: paper PMC8713287, “Synthesis and Cytotoxic Activity of Lepidilines A–D: Comparison with Some 4,5-Diphenyl Analogues and Related Imidazole-2-thiones” (Journal of Natural Products, 2021)
Structures can show the parent of a compound that is named as a salt. Values belong to the compound of their own block, whether it stands above or below them.

What was measured:
[1] = test system: promyelocytic leukemia HL-60; test: MTT cytotoxicity assay, HL-60; format: cell-based, human; details: for IC50: MTT, 48 h incubation, mean ± SEM; for HUVEC/HL-60 IC50 ratio: normal HUVEC vs HL-60
Method: (§1) Potential biological activity of all four lepidilines A–D (1a–1d), as well as their 4,5-diphenyl analogues 6a[PF6], 6c[PF6], and 6d[PF6] (as hexafluorophosphate salts) and a series of imidazole-2-thiones 7 and 8 obtained therefrom, was evaluated in vitro against two human cancer cell lines: promyelocytic leukemia HL-60 and breast cancer adenocarcinoma MCF-7. Selected analogues were also tested against human umbilical vein endothelial cells (HUVECs) using the MTT cytotoxicity assay. Concentration–response analysis was performed to determine drug concentrations required to inhibit the growth of cells by 50% (IC50) after 48 h of incubation.
(§2) Human promyelocytic leukemia (HL-60) and human breast cancer adenocarcinoma (MCF-7) cell lines were obtained from the European Collection of Cell Cultures, while HUVECs were purchased from the American Type Culture Collection. HL-60 cells were cultured in RPMI 1640 plus GlutaMax I medium (Gibco/Life Technologies, Carlsbad, CA, USA). MCF-7 cells were maintained in minimum essential medium Eagle (Sigma-Aldrich, St. Louis, MO, USA) supplemented with 2 mM glutamine and Men nonessential amino acid solution (Sigma-Aldrich). Both media were supplemented with 10% heat-inactivated fetal bovine serum (Biological Industries, Beit-Haemek, Israel) and antibiotics (100 U/mL penicillin and 100 μg/mL streptomycin) (Sigma-Aldrich). HUVEC cells were grown in EGM-2 endothelial medium BulletKit (Lonza, Basel, Switzerland). Cells were maintained at 37 °C in a 5% CO2 atmosphere and were grown until 80% confluent.
(§3) The tested compounds were dissolved in sterile dimethyl sulfoxide (DMSO) and further diluted with culture medium. The final concentration of DMSO in cell cultures was less than 0.1% v/v. Controls without and with 0.1% DMSO were performed in each experiment.
(§4) The MTT assay was performed according to the known procedure.[30] The cells were incubated with the analogues for 48 h. The absorbance of the blue formazan product was measured at 560 nm using a FlexStation 3 multi-mode microplate reader (Molecular Devices, LLC, CA, USA) and compared with control (untreated cells). All experiments were performed in triplicate.

[2] = test system: breast cancer adenocarcinoma MCF-7; test: MTT cytotoxicity assay, MCF-7; format: cell-based, human; details: mean ± SEM
Method: as §1, §2, §3, §4

[3] = test system: eight human cancer cell lines; set-up: method as in PMID 12932133; details: inactive against all those cell lines; cited from earlier work
[4] = test system: human umbilical vein endothelial cells (HUVECs); test: MTT cytotoxicity assay, HUVEC; format: cell-based; details: 48 h incubation, normal cells, mean ± SEM
Method: as §1, §2, §3, §4

[5] = test system: breast carcinoma MDA-231; set-up: method as in PMID 12932133; details: cited from earlier work
[6] = test system: pancreatic adenocarcinoma PACA2; set-up: method as in PMID 12932133; details: cited from earlier work
[7] = Homo sapiens, MCF7, 48 h incubation

melting point: 102 to 104 °C
Compound: COc1cccc(C[n+]2cn(Cc3ccccc3)c(C)c2C)c1 (as salt: phosphate) [1c[PF6], 1-Benzyl-3-(3-methoxybenzyl)-4,5-dimethylimidazolium hexafluorophosphate]

melting point: 129 to 131 °C
Compound: c1ccc(Cn2c[n+](Cc3ccccc3)c(-c3ccccc3)c2-c2ccccc2)cc1 (as salt: phosphate) [6a[PF6], 1,3-Dibenzyl-4,5-diphenylimidazolium hexafluorophosphate]

melting point: 78 to 81 °C
Compound: COc1cccc(C[n+]2cn(Cc3ccccc3)c(-c3ccccc3)c2-c2ccccc2)c1 (as salt: phosphate) [6c[PF6], 1-Benzyl-3-(3-methoxybenzyl)-4,5-diphenylimidazolium hexafluorophosphate]

Compound: COc1cccc(C[n+]2c(-c3ccccc3)c(-c3ccccc3)n(Cc3ccccc3)c2C)c1 (as salt: phosphate) [6d[PF6], 1-Benzyl-3-(3-methoxybenzyl)-2-methyl-4,5-diphenylimidazolium hexafluorophosphate]
melting point: 175 to 177 °C

Compound: Cc1c(C)[n+](Cc2ccccc2)cn1Cc1ccccc1 [1a, 1,3-Dibenzyl-4,5-dimethylimidazolium chloride]
IC50 ([1]; Homo sapiens, HL-60, 48 h): 32.3 ± 3.5 µM
IC50 [2, 7]: > 100 µM
IC50 [3]: > 10 µM
IC50 [4]: > 100 µM

Compound: Cc1c(C)[n+](Cc2ccccc2)cn1Cc1ccccc1 [1a[PF6]] [1,3-Dibenzyl-4,5-dimethylimidazolium hexafluorophosphate]
IC50 [1]: 32 ± 2 µM
IC50 ([2]; 48 h incubation): > 100 µM

melting point: 228 to 229 °C
Compound: Cc1c(C)[n+](Cc2ccccc2)c(C)n1Cc1ccccc1.[Cl-] [1b, 1,3-Dibenzyl-2,4,5-trimethylimidazolium chloride]
IC50 MDA-231 [5]: 1.66 µg/mL
IC50 ([5]; converted from μg/mL): 5.1 µM
IC50 ([1]; Homo sapiens, HL-60, 48 h): 3.8 ± 0.2 µM
IC50 PACA2 [6]: 1.38 µg/mL
IC50 ([6]; converted from μg/mL): 4.2 µM
IC50 [2, 7]: > 100 µM
IC50 [4]: > 100 µM

melting point: 94 to 96 °C
Compound: COc1cccc(Cn2c[n+](Cc3ccccc3)c(C)c2C)c1.[Cl-] [1c, 1-Benzyl-3-(3-methoxybenzyl)-4,5-dimethylimidazolium chloride]
IC50 ([1]; Homo sapiens, HL-60, 48 h): 27.7 ± 2.5 µM
IC50 [2, 7]: 75 ± 5 µM
IC50 [4]: > 100 µM

Compound: COc1cccc(C[n+]2cn(Cc3ccccc3)c(C)c2C)c1 [1c[PF6], 1-Benzyl-3-(3-methoxybenzyl)-4,5-dimethylimidazolium hexafluorophosphate]
IC50 ([1]; Homo sapiens, HL-60, 48 h): 19.9 ± 0.2 µM
IC50 [2, 7]: 69.9 ± 0.2 µM

melting point: 214 to 216 °C
Compound: COc1cccc(Cn2c(C)c(C)[n+](Cc3ccccc3)c2C)c1.[Cl-] [1d, 1-Benzyl-3-(3-methoxybenzyl)-2,4,5-trimethylimidazolium chloride]
IC50 ([1]; Homo sapiens, HL-60, 48 h): 1.1 ± 0.1 µM
fold more cytotoxic for leukemia (HL-60) than for breast cancer (MCF-7) cells ([1]; MCF-7 vs HL-60): over 100 fold
HUVEC/HL-60 IC50 ratio [1]: over 100
IC50 [2, 7]: > 100 µM
IC50 [4]: > 100 µM

Compound: c1ccc(Cn2c[n+](Cc3ccccc3)c(-c3ccccc3)c2-c2ccccc2)cc1 [6a[PF6], 1,3-Dibenzyl-4,5-diphenylimidazolium hexafluorophosphate]
IC50 ([1]; Homo sapiens, HL-60, 48 h): 1.2 ± 0.1 µM
IC50 [2, 7]: 8.2 ± 0.2 µM

melting point: 149 to 151 °C
Compound: COc1cccc(C[n+]2cn(Cc3ccccc3)c(-c3ccccc3)c2-c2ccccc2)c1.[Br-] [6c[Br], 1-Benzyl-3-(3-methoxybenzyl)-4,5-diphenylimidazolium bromide]

Compound: COc1cccc(C[n+]2cn(Cc3ccccc3)c(-c3ccccc3)c2-c2ccccc2)c1 [6c[PF6], 1-Benzyl-3-(3-methoxybenzyl)-4,5-diphenylimidazolium hexafluorophosphate]
IC50 ([1]; Homo sapiens, HL-60, 48 h): 1.2 ± 0.2 µM
IC50 [2, 7]: 7.9 ± 0.3 µM
IC50 [4]: 8.8 ± 0.1 µM

Compound: COc1cccc(C[n+]2c(-c3ccccc3)c(-c3ccccc3)n(Cc3ccccc3)c2C)c1 [6d[PF6], 1-Benzyl-3-(3-methoxybenzyl)-2-methyl-4,5-diphenylimidazolium hexafluorophosphate]
IC50 ([1]; Homo sapiens, HL-60, 48 h): 1.2 ± 0.1 µM
IC50 [2, 7]: 6.5 ± 0.2 µM

melting point: 183 to 185 °C
Compound: Cc1c(C)n(Cc2ccccc2)c(=S)n1Cc1ccccc1 [7a, 1,3-Dibenzyl-4,5-dimethylimidazole-2-thione]
IC50 ([1]; Homo sapiens, HL-60, 48 h): > 100 µM
IC50 [2, 7]: > 100 µM

Compound: COc1cccc(Cn2c(C)c(C)n(Cc3ccccc3)c2=S)c1 [7c, 1-(3′-Methoxybenzyl)-3-benzyl-4,5-dimethylimidazole-2-thione]
IC50 ([1]; Homo sapiens, HL-60, 48 h): 20.2 ± 1.9 µM
IC50 [2, 7]: > 100 µM

melting point: 180 to 182 °C
Compound: S=c1n(Cc2ccccc2)c(-c2ccccc2)c(-c2ccccc2)n1Cc1ccccc1 [8a, 1,3-Dibenzyl-4,5-diphenylimidazole-2-thione]
IC50 ([1]; Homo sapiens, HL-60, 48 h): 8.1 ± 0.3 µM
IC50 [2, 7]: > 100 µM

melting point: 52 to 55 °C
Compound: COc1cccc(Cn2c(-c3ccccc3)c(-c3ccccc3)n(Cc3ccccc3)c2=S)c1 [8c, 1-(3′-Methoxybenzyl)-3-benzyl-4,5-diphenylimidazole-2-thione]
IC50 ([1]; Homo sapiens, HL-60, 48 h): 55 ± 5 µM
IC50 [2, 7]: > 100 µM

Compound: COc1cccc2c1C(=O)c1c(O)c3c(c(O)c1C2=O)C[C@@](O)(C(=O)CO)C[C@@H]3O[C@H]1C[C@H](N)[C@H](O)[C@H](C)O1 [DXR, doxorubicin, reference compound]
fold more cytotoxic than lepidiline D ([1]; DXR vs lepidiline D, HL-60): 10 fold
IC50 ([1]; Homo sapiens, HL-60, 48 h): 0.12 ± 0.01 µM
HUVEC/HL-60 IC50 ratio [1]: about 10
IC50 [2, 7]: 0.9 ± 0.1 µM
IC50 [4]: 1.4 ± 0.1 µM

Compound: c1c[n+](C23CC4CC(CC(C4)C2)C3)cn1C12CC3CC(CC(C3)C1)C2 [compound 9, 1,3-diadamantylimidazolium bromide]
IC50 ([1]; Homo sapiens, HL-60, 48 h): 1.8 ± 0.1 µM
IC50 [2, 7]: 51.5 ± 1.5 µM

Compound: c1c[n+](OC23CC4CC(CC(C4)C2)C3)cn1OC12CC3CC(CC(C3)C1)C2 [compound 10]
IC50 ([1]; Homo sapiens, HL-60, 48 h): 0.3 ± 0.1 µM
IC50 [2, 7]: 4.5 ± 0.1 µM
IC50 [4]: 9.1 ± 0.3 µM
